Holding throughout (format): biochemical
The subject of assay [1] is resistant forms of EPSPS. Description: EPSPS assays of plant extracts in the presence of glyphosate, resistant enzyme. The settings on record: 0.1 mM N-(phosphonomethyl)glycine; 0.1 mM 14C-PEP; 0.75 mM shikimate-3-Pi; estimated. Here is the method:
(§1) Assays are carried out generally according to the radiochemical method of Padgette et al 1987 (Archives of Biochemistry and Biophysics, 258(2) 564–573) with K+ions as the major species of cationic counterion. Assays in a total volume of 50 μl, in 50 mM Hepes(KOH) pH 7.0 at 25° C., contain purified enzyme or plant extract (see below) diluted appropriately in Hepes pH 7.0 containing 10% glycerol, and 5 mM DTT, ^14C PEP either as variable-substrate (for kinetic determinations) or fixed at 100 or 250 μM and shikimate 3 Phosphate (K+ salt) at 0.75 or 2 mM as indicated. Optionally, for assays of crude plant extracts, assays also contain 5 mM KF and/or 0.1 mM ammonium molybdate. Assays are started with the addition of ^14C phosphoenolpyruvate (cyclohexylammonium+salt) and stopped after 2–10 minutes (2 minutes is preferable) with the addition of 50 μl of a solution of 1 part 1M acetic acid and 9 parts ethanol. […] Apparent Km and Vmax values are determined by least squares fit to a hyperbola with simple weighting using the Grafit 3.09b from Erithacus Software Ltd. Km values are generally ascertained using 8–9 concentrations of variable substrate ranging from Km/2–10 Km and triplicate points. […]

In assay [2] the test system is sensitive w/t form of EPSPS. Description: EPSPS assays of plant extracts in the presence of glyphosate, sensitive w/t enzyme. The settings on record: 0.1 mM N-(phosphonomethyl)glycine; 0.1 mM 14C-PEP; 0.75 mM shikimate-3-Pi. Here is the method: as §1
Assay [3] has as its target T1, mutant Brassica napus EPSPS (Brassica napus, UniProt P17688, P178S/T174I).
T1 construct: The mature mutant Brassica napus EPSPS protein is purified; initiating Met (N); made in house; host or cells: E. coli BL21 (DE3) RP, vector pET24a
Description: Radiochemical EPSPS assay of purified mutant Brassica napus EPSPS. Here is the method: as §1, with “^14C PEP either as variable-substrate (for kinetic determinations) or fixed at 100 or 250 μM and shikimate 3 Phosphate” left out
The mature mutant Brassica napus EPSPS protein is purified at ˜4 C as follows. […] EPSPS-containing fractions detected on the basis of EPSPS enzyme activity are combined and loaded onto an xk16 column containing 20 ml of HP Q-Sepharose equilibrated with S200 buffer. […]

Where a name gives a salt, the structure may show the parent alone. Bounds are passed on as bounds.

T1 sequence (P17688 73-516 T174I/P178S): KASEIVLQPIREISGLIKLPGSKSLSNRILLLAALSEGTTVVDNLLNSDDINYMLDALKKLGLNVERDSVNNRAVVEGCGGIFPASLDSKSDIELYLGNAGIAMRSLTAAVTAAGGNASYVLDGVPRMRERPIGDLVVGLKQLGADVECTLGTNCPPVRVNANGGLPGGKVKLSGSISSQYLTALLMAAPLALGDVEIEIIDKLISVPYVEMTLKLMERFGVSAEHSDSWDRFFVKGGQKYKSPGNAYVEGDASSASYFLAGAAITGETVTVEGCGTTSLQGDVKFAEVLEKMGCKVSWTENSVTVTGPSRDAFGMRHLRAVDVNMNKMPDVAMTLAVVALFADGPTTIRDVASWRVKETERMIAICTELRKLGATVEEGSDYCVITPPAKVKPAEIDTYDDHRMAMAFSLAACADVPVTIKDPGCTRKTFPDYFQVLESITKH

In the case of `O=C(O)CNCP(=O)(O)O` [N-(phosphonomethyl)glycine], the “inhibition of resistant forms of EPSPS” value in assay [1] is recorded as less than 8.5%. Further, the “inhibition of sensitive w/t EPSPS” value in assay [2] is recorded as more than 98%.

Take `O=C(O)CNCP(=O)(O)O` [potassium salt of glyphosate]: in assay [3] (at 40 μM PEP, 2 mM shikimate-3-Pi, purified enzyme, read-out: IC50 value for the potassium salt of glyphosate), the IC50 is approximately 600 µM. Moreover, in assay [3] (purified mutant EPSPS, read-out: estimated Ki value for potassium glyphosate), the Ki is approximately 450 µM.

Usually IC50 stands for the midpoint of a concentration-inhibition curve. What is called Ki is the equilibrium dissociation constant of an inhibitor or competing ligand from its target.

Values taken from patent US7169970B2, “Herbicide resistant plants” (priority 2000, dated 2007).
